Measured values: ChEMBL document CHEMBL1155953, “Synthesis and biological evaluation of C-12' substituted vinflunine derivatives” (Bioorg Med Chem Lett, 2008)

test system: A549; assay: Cytotoxicity against human A549 cells by SRB assay; assay type: functional, cell-based

Structure (SMILES) | IC50 [µM]
CC[C@]12C=CCN3CC[C@@]4(c5cc([C@@]6(C(=O)OC)C[C@H]7C[C@@H](C(C)(F)F)CN(Cc8c6[nH]c6ccc(-c9ccoc9)cc86)C7)c(OC)cc5N(C)[C@H]4[C@@](O)(C(=O)OC)[C@@H]1OC(C)=O)[C@@H]32 | 2.28
CC[C@]12C=CCN3CC[C@@]4(c5cc([C@@]6(C(=O)OC)C[C@H]7C[C@@H](C(C)(F)F)CN(CCc8c6[nH]c6ccc(C#N)cc86)C7)c(OC)cc5N(C)[C@H]4[C@@](O)(C(=O)OC)[C@@H]1OC(C)=O)[C@@H]32 | 0.29
CC[C@]12C=CCN3CC[C@@]4(c5cc([C@@]6(C(=O)OC)C[C@H]7C[C@@H](C(C)(F)F)CN(Cc8c6[nH]c6ccc(NC(=O)N(C)C)cc86)C7)c(OC)cc5N(C)[C@H]4[C@@](O)(C(=O)OC)[C@@H]1OC(C)=O)[C@@H]32 | > 100
CC[C@]12C=CCN3CC[C@@]4(c5cc([C@@]6(C(=O)OC)C[C@H]7C[C@@H](C(C)(F)F)CN(CCc8c6[nH]c6ccc(C(C)=O)cc86)C7)c(OC)cc5N(C)[C@H]4[C@@](O)(C(=O)OC)[C@@H]1OC(C)=O)[C@@H]32 | 4.72
CCC(=O)c1ccc2[nH]c3c(c2c1)CN1C[C@H](C[C@@H](C(C)(F)F)C1)C[C@]3(C(=O)OC)c1cc2c(cc1OC)N(C)[C@H]1[C@@](O)(C(=O)OC)[C@H](OC(C)=O)[C@]3(CC)C=CCN4CC[C@]21[C@@H]43 | 17.4
CC[C@]12C=CCN3CC[C@@]4(c5cc([C@@]6(C(=O)OC)C[C@H]7C[C@@H](C(C)(F)F)CN(Cc8c6[nH]c6ccc(C9CC9)cc86)C7)c(OC)cc5N(C)[C@H]4[C@@](O)(C(=O)OC)[C@@H]1OC(C)=O)[C@@H]32 | 0.12
CCOC(=O)c1ccc2[nH]c3c(c2c1)CN1C[C@H](C[C@@H](C(C)(F)F)C1)C[C@]3(C(=O)OC)c1cc2c(cc1OC)N(C)[C@H]1[C@@](O)(C(=O)OC)[C@H](OC(C)=O)[C@]3(CC)C=CCN4CC[C@]21[C@@H]43 | 1.03
CCCCc1ccc2[nH]c3c(c2c1)CN1C[C@H](C[C@@H](C(C)(F)F)C1)C[C@]3(C(=O)OC)c1cc2c(cc1OC)N(C)[C@H]1[C@@](O)(C(=O)OC)[C@H](OC(C)=O)[C@]3(CC)C=CCN4CC[C@]21[C@@H]43 | 1.88
CCNC(=S)Nc1ccc2[nH]c3c(c2c1)CN1C[C@H](C[C@@H](C(C)(F)F)C1)C[C@]3(C(=O)OC)c1cc2c(cc1OC)N(C)[C@H]1[C@@](O)(C(=O)OC)[C@H](OC(C)=O)[C@]3(CC)C=CCN4CC[C@]21[C@@H]43 | 5.68
CC[C@]12C=CCN3CC[C@@]4(c5cc([C@@]6(C(=O)OC)C[C@H]7C[C@@H](C(C)(F)F)CN(Cc8c6[nH]c6ccc(NC(=O)N9CCOCC9)cc86)C7)c(OC)cc5N(C)[C@H]4[C@@](O)(C(=O)OC)[C@@H]1OC(C)=O)[C@@H]32 | > 100
CC[C@]12C=CCN3CC[C@@]4(c5cc([C@@]6(C(=O)OC)C[C@H]7C[C@@H](C(C)(F)F)CN(Cc8c6[nH]c6ccc(-c9ccc(F)cc9)cc86)C7)c(OC)cc5N(C)[C@H]4[C@@](O)(C(=O)OC)[C@@H]1OC(C)=O)[C@@H]32 | 2.56
CC[C@]12C=CCN3CC[C@@]4(c5cc([C@@]6(C(=O)OC)C[C@H]7C[C@@H](C(C)(F)F)CN(Cc8c6[nH]c6ccc(-c9ccc(Cl)cc9)cc86)C7)c(OC)cc5N(C)[C@H]4[C@@](O)(C(=O)OC)[C@@H]1OC(C)=O)[C@@H]32 | 1.17
CCc1ccc2[nH]c3c(c2c1)CCN1C[C@H](C[C@@H](C(C)(F)F)C1)C[C@]3(C(=O)OC)c1cc2c(cc1OC)N(C)[C@H]1[C@@](O)(C(=O)OC)[C@H](OC(C)=O)[C@]3(CC)C=CCN4CC[C@]21[C@@H]43 | 0.92
CC[C@]12C=CCN3CC[C@@]4(c5cc([C@@]6(C(=O)OC)C[C@H]7C[C@@H](C(C)(F)F)CN(Cc8c6[nH]c6ccc(Nc9ccccc9)cc86)C7)c(OC)cc5N(C)[C@H]4[C@@](O)(C(=O)OC)[C@@H]1OC(C)=O)[C@@H]32 | 1.86
CC[C@]12C=CCN3CC[C@@]4(c5cc([C@@]6(C(=O)OC)C[C@H]7C[C@@H](C(C)(F)F)CN(CCc8c6[nH]c6ccc(NC(C)=O)cc86)C7)c(OC)cc5N(C)[C@H]4[C@@](O)(C(=O)OC)[C@@H]1OC(C)=O)[C@@H]32 | 41
CC[C@]12C=CCN3CC[C@@]4(c5cc([C@@]6(C(=O)OC)C[C@H]7C[C@@H](C(C)(F)F)CN(Cc8c6[nH]c6ccc(C(=O)C9CC9)cc86)C7)c(OC)cc5N(C)[C@H]4[C@@](O)(C(=O)OC)[C@@H]1OC(C)=O)[C@@H]32 | 4.45
CC[C@]12C=CCN3CC[C@@]4(c5cc([C@@]6(C(=O)OC)C[C@H]7C[C@@H](C(C)(F)F)CN(Cc8c6[nH]c6ccc(C(=O)OC(C)C)cc86)C7)c(OC)cc5N(C)[C@H]4[C@@](O)(C(=O)OC)[C@@H]1OC(C)=O)[C@@H]32 | 3.26
CC[C@]12C=CCN3CC[C@@]4(c5cc([C@@]6(C(=O)OC)C[C@H]7C[C@@H](C(C)(F)F)CN(Cc8c6[nH]c6ccc(-c9ccc(C#N)cc9)cc86)C7)c(OC)cc5N(C)[C@H]4[C@@](O)(C(=O)OC)[C@@H]1OC(C)=O)[C@@H]32 | 2.5
CC[C@]12C=CCN3CC[C@@]4(c5cc([C@@]6(C(=O)OC)C[C@H]7C[C@@H](C(C)(F)F)CN(CCc8c6[nH]c6ccc(NS(C)(=O)=O)cc86)C7)c(OC)cc5N(C)[C@H]4[C@@](O)(C(=O)OC)[C@@H]1OC(C)=O)[C@@H]32 | 0.32

Structure (SMILES) | IC50 [µM]
CC[C@]12C=CCN3CC[C@@]4(c5cc([C@@]6(C(=O)OC)C[C@H]7C[C@@H](C(C)(F)F)CN(Cc8c6[nH]c6ccc(NC(=S)NC9CC9)cc86)C7)c(OC)cc5N(C)[C@H]4[C@@](O)(C(=O)OC)[C@@H]1OC(C)=O)[C@@H]32 | 27.5
C#Cc1ccc2[nH]c3c(c2c1)CCN1C[C@H](C[C@@H](C(C)(F)F)C1)C[C@]3(C(=O)OC)c1cc2c(cc1OC)N(C)[C@H]1[C@@](O)(C(=O)OC)[C@H](OC(C)=O)[C@]3(CC)C=CCN4CC[C@]21[C@@H]43 | 0.05
CC[C@]12C=CCN3CC[C@@]4(c5cc([C@@]6(C(=O)OC)C[C@H]7C[C@@H](C(C)(F)F)CN(CCc8c6[nH]c6ccc(N9CCCC9)cc86)C7)c(OC)cc5N(C)[C@H]4[C@@](O)(C(=O)OC)[C@@H]1OC(C)=O)[C@@H]32 | 0.64
CC[C@]12C=CCN3CC[C@@]4(c5cc([C@@]6(C(=O)OC)C[C@H]7C[C@@H](C(C)(F)F)CN(Cc8c6[nH]c6ccc(-c9ccccc9Cl)cc86)C7)c(OC)cc5N(C)[C@H]4[C@@](O)(C(=O)OC)[C@@H]1OC(C)=O)[C@@H]32 | 1.01
CC[C@]12C=CCN3CC[C@@]4(c5cc([C@@]6(C(=O)OC)C[C@H]7C[C@@H](C(C)(F)F)CN(Cc8c6[nH]c6ccc(-c9ccccc9C(F)(F)F)cc86)C7)c(OC)cc5N(C)[C@H]4[C@@](O)(C(=O)OC)[C@@H]1OC(C)=O)[C@@H]32 | 0.29
CC[C@]12C=CCN3CC[C@@]4(c5cc([C@@]6(C(=O)OC)C[C@H]7C[C@@H](C(C)(F)F)CN(CCc8c6[nH]c6ccc(C(=O)OC)cc86)C7)c(OC)cc5N(C)[C@H]4[C@@](O)(C(=O)OC)[C@@H]1OC(C)=O)[C@@H]32 | 8.73
CC[C@]12C=CCN3CC[C@@]4(c5cc([C@@]6(C(=O)OC)C[C@H]7C[C@@H](C(C)(F)F)CN(CCc8c6[nH]c6ccc(C)cc86)C7)c(OC)cc5N(C)[C@H]4[C@@](O)(C(=O)OC)[C@@H]1OC(C)=O)[C@@H]32 | 0.037
CC[C@]12C=CCN3CC[C@@]4(c5cc([C@@]6(C(=O)OC)C[C@H]7C[C@@H](C(C)(F)F)CN(Cc8c6[nH]c6ccc(NC(=O)C(F)(F)F)cc86)C7)c(OC)cc5N(C)[C@H]4[C@@](O)(C(=O)OC)[C@@H]1OC(C)=O)[C@@H]32 | 1.81
CC[C@]12C=CCN3CC[C@@]4(c5cc([C@@]6(C(=O)OC)C[C@H]7C[C@@H](C(C)(F)F)CN(Cc8c6[nH]c6ccc(-c9ccc(F)cc9F)cc86)C7)c(OC)cc5N(C)[C@H]4[C@@](O)(C(=O)OC)[C@@H]1OC(C)=O)[C@@H]32 | 1.02
CC[C@]12C=CCN3CC[C@@]4(c5cc([C@@]6(C(=O)OC)C[C@H]7C[C@@H](C(C)(F)F)CN(Cc8c6[nH]c6ccc(NC(=O)C(Cl)Cl)cc86)C7)c(OC)cc5N(C)[C@H]4[C@@](O)(C(=O)OC)[C@@H]1OC(C)=O)[C@@H]32 | 0.2
CC[C@]12C=CCN3CC[C@@]4(c5cc([C@@]6(C(=O)OC)C[C@H]7C[C@@H](C(C)(F)F)CN(Cc8c6[nH]c6ccc(C(=O)OCc9ccccc9)cc86)C7)c(OC)cc5N(C)[C@H]4[C@@](O)(C(=O)OC)[C@@H]1OC(C)=O)[C@@H]32 | 0.28
CC[C@]12C=CCN3CC[C@@]4(c5cc([C@@]6(C(=O)OC)C[C@H]7C[C@@H](C(C)(F)F)CN(CCc8c6[nH]c6ccc(-c9ccc(C)cc9)cc86)C7)c(OC)cc5N(C)[C@H]4[C@@](O)(C(=O)OC)[C@@H]1OC(C)=O)[C@@H]32 | 0.56
CC[C@]12C=CCN3CC[C@@]4(c5cc([C@@]6(C(=O)OC)C[C@H]7C[C@@H](C(C)(F)F)CN(Cc8c6[nH]c6ccc(NC(=O)OC)cc86)C7)c(OC)cc5N(C)[C@H]4[C@@](O)(C(=O)OC)[C@@H]1OC(C)=O)[C@@H]32 | 0.42
CC[C@]12C=CCN3CC[C@@]4(c5cc([C@@]6(C(=O)OC)C[C@H]7C[C@@H](C(C)(F)F)CN(CCc8c6[nH]c6ccc(-c9ccccc9)cc86)C7)c(OC)cc5N(C)[C@H]4[C@@](O)(C(=O)OC)[C@@H]1OC(C)=O)[C@@H]32 | 2.16
C=CCNc1ccc2[nH]c3c(c2c1)CN1C[C@H](C[C@@H](C(C)(F)F)C1)C[C@]3(C(=O)OC)c1cc2c(cc1OC)N(C)[C@H]1[C@@](O)(C(=O)OC)[C@H](OC(C)=O)[C@]3(CC)C=CCN4CC[C@]21[C@@H]43 | 0.51
CC[C@]12C=CCN3CC[C@@]4(c5cc([C@@]6(C(=O)OC)C[C@H]7C[C@@H](C(C)(F)F)CN(Cc8c6[nH]c6ccc(-c9ccsc9)cc86)C7)c(OC)cc5N(C)[C@H]4[C@@](O)(C(=O)OC)[C@@H]1OC(C)=O)[C@@H]32 | 3
CC[C@]12C=CCN3CC[C@@]4(c5cc([C@@]6(C(=O)OC)C[C@H]7C[C@@H](C(C)(F)F)CN(Cc8c6[nH]c6ccc(NC(N)=O)cc86)C7)c(OC)cc5N(C)[C@H]4[C@@](O)(C(=O)OC)[C@@H]1OC(C)=O)[C@@H]32 | > 100
CC[C@]12C=CCN3CC[C@@]4(c5cc([C@@]6(C(=O)OC)C[C@H]7C[C@@H](C(C)(F)F)CN(Cc8c6[nH]c6ccc(N=[N+]=[N-])cc86)C7)c(OC)cc5N(C)[C@H]4[C@@](O)(C(=O)OC)[C@@H]1OC(C)=O)[C@@H]32 | 0.16
CC[C@]12C=CCN3CC[C@@]4(c5cc([C@@]6(C(=O)OC)C[C@H]7C[C@@H](C(C)(F)F)CN(Cc8c6[nH]c6ccc(NC(=O)NC)cc86)C7)c(OC)cc5N(C)[C@H]4[C@@](O)(C(=O)OC)[C@@H]1OC(C)=O)[C@@H]32 | 35.1
